According to patent US11019821B2, “Fused bicyclic heterocycle derivatives as pesticides” (Bayer Aktiengesellschaft, priority 2018, dated 2021):

Assays:
[1] = log P by HPLC on reversed-phase column, acidic range; type: physicochemical; conditions: reversed-phase HPLC column (C 18); pH 2.7, 0.1% aqueous formic acid and acetonitrile, C 18 column, 55° C.; read-out: log P (HCOOH)
Experimental: The log P values are measured according to EEC Directive 79/831 Annex V.A8 by HPLC (high-performance lilog Puid chromatography) on a reversed-phase column (C 18). Temperature: 55° C.
The LC-MS determination in the acidic range is effected at pH 2.7 with 0.1% alog Pueous formic acid and acetonitrile (containing 0.1% formic acid) as eluents; linear gradient from 10% acetonitrile to 95% acetonitrile. Called log P (HCOOH) in the table.
Calibration is effected using unbranched alkan-2-ones (having 3 to 16 carbon atoms) with known log P values (log P values determined on the basis of the retention times by linear interpolation between two successive alkanones).

[2] = tested on: Myzus persicae; assay: Myzus persicae oral test; type: in vivo; conditions: 120 h, application rate 4 ppm, after 5 days, read-out: efficacy (aphids killed)
Experimental: To produce a suitable active ingredient formulation, 1 part by weight of active ingredient is dissolved with the stated parts by weight of solvent and made up to the desired concentration with water.
50 μl of the active ingredient preparation are transferred into microtitre plates and made up to a final volume of 200 μl with 150 μl of IPL41 insect medium (33%+15% sugar). Subselog Puently, the plates are sealed with parafilm, which a mixed population of green peach aphids (Myzus persicae) within a second microtitre plate is able to puncture and imbibe the solution.
(§1) After 5 days, the efficacy in % is determined. 100% means that all the aphids have been killed; 0% means that no aphids have been killed.

[3] = tested on: Myzus persicae; assay: Myzus persicae spray test; type: in vivo; conditions: foliar, 120 h, application rate 100 g/ha, after 5 days, Chinese cabbage leaf discs, read-out: efficacy (aphids killed)
Experimental: (§2) To produce a suitable active ingredient formulation, 1 part by weight of active ingredient is dissolved with the specified parts by weight of solvent and made up to the desired concentration with water containing an emulsifier concentration of 1000 ppm. To produce further test concentrations, the formulation is diluted with emulsifier-containing water.
Discs of Chinese cabbage leaves (Brassica pekinensis) infested by all stages of the green peach aphid (Myzus persicae) are sprayed with an active ingredient formulation of the desired concentration.
as §1

[4] = tested on: Phaedon cochleariae; assay: Phaedon cochleariae spray test; type: in vivo; conditions: application rate 100 g/ha, after 7 days, Chinese cabbage leaf discs
Experimental: as §2
Discs of Chinese cabbage leaves (Brassica pekinensis) are sprayed with an active ingredient formulation of the desired concentration and, after drying, populated with larvae of the mustard beetle (Phaedon cochleariae).
After 7 days, the efficacy in % is determined. 100% means that all the beetle larvae have been killed; 0% means that no beetle larvae have been killed.

[5] = tested on: Spodoptera frugiperda; assay: Spodoptera frugiperda spray test; type: in vivo; conditions: application rate 100 g/ha, after 7 days, maize leaf discs
Experimental: as §2
Leaf discs of maize (Zea mays) are sprayed with an active ingredient formulation of the desired concentration and, after drying, populated with caterpillars of the armyworm (Spodoptera frugiperda).
After 7 days, the efficacy in % is determined. 100% means that all the caterpillars have been killed; 0% means that no caterpillar has been killed.

[6] = tested on: Ctenocephalides felis; assay: Ctenocephalides felis oral test; type: in vivo; conditions: application rate 100 ppm in citrated cattle blood, after 2 days, adult cat fleas
Experimental: Solvent: dimethyl sulfoxide
To produce a suitable active ingredient formulation, 10 mg of active ingredient are mixed with 0.5 ml of dimethyl sulfoxide. Dilution with citrated cattle blood gives the desired concentration.
About 20 unfed adult cat fleas (Ctenocephalides felis) are placed into a chamber which is closed at the top and bottom with gauze. A metal cylinder whose bottom end is closed with parafilm is placed onto the chamber. The cylinder contains the blood/active ingredient formulation, which can be imbibed by the fleas through the parafilm membrane.
After 2 days, the kill in % is determined. 100% means that all of the fleas have been killed; 0% means that none of the fleas have been killed.

[7] = tested on: Diabrotica balteata; assay: Diabrotica balteata spray test; type: in vivo; conditions: application rate 160 μg/cavity, after 7 days, beetle larvae on germinated wheat grains
Experimental: To produce an appropriate active ingredient formulation, 1 part by weight of active ingredient is dissolved with the given parts by weight of solvent and made up with water containing an emulsifier concentration of 1000 ppm until the desired concentration is attained. Further test concentrations are produced by diluting with emulsifier-containing water.
Pre-swollen wheat grains (Triticum aestivum) are incubated in a multiwell plate filled with agar and a little water for one day (5 seed grains per cavity). The germinated wheat grains are sprayed with an active ingredient formulation of the desired concentration. Subselog Puently, each cavity is infected with 10-20 Diabrotica balteata beetle larvae.
After 7 days, efficacy in % is determined. 100% means that all wheat plants have grown as in the untreated, uninfected control; 0% means that no wheat plant has grown.

Work on `Cn1c(-c2nn3c(c2Br)CC(C(F)(F)F)CC3)nc2cc(C(F)(F)F)cnc21` (stereo not shown) [2-[3-Bromo-5-(trifluoromethyl)-4,5,6,7-tetrahydropyrazolo[1,5-a]pyridin-2-yl]-3-methyl-6-(trifluoromethyl)imidazo[4,5-b]pyridine] yielded a chromatographic logP [1] of 3.99.
With `O=C(O)c1nn2c(c1Br)CC(C(F)(F)F)CC2` (stereo not shown) [3-Bromo-5-(trifluoromethyl)-4,5,6,7-tetrahydropyrazolo[1,5-a]pyridine-2-carboxylic acid] the chromatographic logP [1] was 1.75.
In the case of `O=C(O)c1cc2n(n1)CCC(C(F)(F)F)C2` (stereo not shown) [5-(Trifluoromethyl)-4,5,6,7-tetrahydropyrazolo[1,5-a]pyridine-2-carboxylic add], the chromatographic logP [1] is reported as 1.28.
In the case of `O=C(O)c1cc2cc(C(F)(F)F)ccn2n1` [5-(Trifluoromethyl)pyrazolo[1,5-a]pyridine-2-carboxylic add], the chromatographic logP [1] is reported as 1.58.
`COC(=O)c1nn2ccc(C(F)(F)F)cc2c1C(=O)OC` [Dimethyl 5-(trifluoromethyl)pyrazolo[1,5-a]pyridine-2,3-dicarboxylate] gave a chromatographic logP [1] of 2.57.
With `CCS(=O)(=O)c1c(-c2nc3cc(C(F)(F)F)cnc3n2C)nn2c1CCCC2` [Example I-03] the pest or weed control at 4 ppm [2] was 100%, the pest or weed control at 100 g/ha [3] was 90% and the “efficacy (beetle larvae killed)” value [4] was 100%.
Work on `CCS(=O)(=O)c1c(-c2nc3cc(C(F)(F)F)ncc3n2C)nn2c1CCC(C)C2` (stereo not shown) [Example I-06] yielded a pest or weed control at 100 g/ha [3] of 90%.
`CCS(=O)(=O)c1c(-c2nc3cc(C(F)(F)F)cnc3n2C)nn2c1CCC(C)C2` (stereo not shown) [Example I-07] gave a pest or weed control at 4 ppm [2] of 100%.
With `CCS(=O)(=O)c1c(-c2nc3cc(C(F)(F)C(F)(F)F)cnc3n2C)nn2c1CCC(C)C2` (stereo not shown) [Example I-08] the pest or weed control at 4 ppm [2] was 100% and the “efficacy (caterpillars killed)” value [5] was 100%.
`CCS(=O)(=O)c1c(-c2nc3cc(OC(F)(F)F)cnc3n2C)nn2c1CCC(C)C2` (stereo not shown) [Example I-09] showed a pest or weed control at 4 ppm [2] of 90% and a pest or weed control at 100 g/ha [3] of 90%.
For `CCS(=O)(=O)c1c(-c2nc3cc(SC(F)(F)F)cnc3n2C)nn2c1CCC(C)C2` (stereo not shown) [Example I-11], the “efficacy (kill in %)” value [6] was 100%, the pest or weed control at 4 ppm [2] was 100% and the pest or weed control at 100 g/ha [3] was 90%. For the same molecule, the “efficacy (caterpillars killed)” value [5] was 83%.
For `CCS(=O)(=O)c1c(-c2nc3cc(C(F)(F)C(F)(F)F)ncc3n2C)nn2c1CCCC2` [Example I-12], the pest or weed control at 4 ppm [2] was 100%, the pest or weed control at 100 g/ha [3] was 90% and the “efficacy (beetle larvae killed)” value [4] was 100%.
Molecule `CCS(=O)(=O)c1c(-c2nc3cc([S+]([O-])C(F)(F)F)cnc3n2C)nn2c1CCC(C)C2` (stereo not shown) [Example I-14] has a pest or weed control at 4 ppm [2] of 100% and a pest or weed control at 100 g/ha [3] of 100%.
With `CCS(=O)(=O)c1c(-c2nc3cc(S(=O)(=O)C(F)(F)F)cnc3n2C)nn2c1CCC(C)C2` (stereo not shown) [Example I-15] the “efficacy (kill in %)” value [6] was 90%, the pest or weed control at 4 ppm [2] was 90% and the pest or weed control at 100 g/ha [3] was 90%. For the same molecule, the “efficacy (caterpillars killed)” value [5] was 100%.
With `CCS(=O)(=O)c1c(-c2nc3cc(S(=O)(=O)C(F)(F)F)ccc3o2)nn2c1CCC(C)C2` (stereo not shown) [Example I-16] the pest or weed control at 4 ppm [2] was 90%.
For `CCS(=O)(=O)c1c(-c2nc3cc(C(F)(F)C(F)(F)F)ncc3n2C)nn2c1CCC(C(F)(F)F)C2` (stereo not shown) [Example I-17], the “efficacy (wheat plants grown as in untreated, uninfected control)” value [7] was 100%, the pest or weed control at 4 ppm [2] was 100% and the “efficacy (caterpillars killed)” value [5] was 100%.
In the case of `CCS(=O)(=O)c1c(-c2nc3c(n2C)CN(C)C(C(F)(F)F)=C3)nn2c1CCC(C(F)(F)F)C2` (stereo not shown) [Example I-18], the “efficacy (wheat plants grown as in untreated, uninfected control)” value [7] is reported as 100%, the pest or weed control at 4 ppm [2] is reported as 100% and the pest or weed control at 100 g/ha [3] is reported as 90%.
For `CCS(=O)(=O)c1c(-c2nc3cc(C(F)(F)C(F)(F)F)cnc3n2C)nn2c1CCC(C(F)(F)F)C2` (stereo not shown) [Example I-19], the “efficacy (wheat plants grown as in untreated, uninfected control)” value [7] was 100%, the pest or weed control at 4 ppm [2] was 100% and the “efficacy (caterpillars killed)” value [5] was 100%.
